Reference: ChEMBL document CHEMBL5712074, “Divergent clonal evolution of castration-resistant neuroendocrine prostate cancer” (Nat Med, 2016)
The source made the active and inactive calls. No cut-off for these calls is given here.

System: NCI-H660
Experiment: Cytotoxicity against human NCI-H660 cells assessed as decrease in cell viability at 5 to 10 uM incubated for 48 hrs by CellTiter-Blue assay
Assay type: functional, cell-based
Settings: dose 5-10 µM

CCCc1cc(C)[nH]c(=O)c1CNC(=O)c1cc(-c2ccnc(N3CCN(C)CC3)c2)cc2c1cnn2C(C)C
Activity: Active
